Laboratory results as given in PubChem BioAssay AID1963838 (Molecular Pharmacology Branch, DTP, NCI, 2024).

System: 855422-203-R-J1-PDC complex spheroid viability
Assay: Anticancer human tumor 855422-203-R-J1-PDC patient-derived bladder carcinoma cell line growth inhibition [POLQ]
Conditions: for IC50: curve of first compound; for viability, T/C: stronger effect = lower value
Method in brief: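 Complex spheroid viability model combining PDC tumour cells with endothelial (HUVEC) and MSC stromal cells. Novobiocin, ART-558 or RP6685 were tested singly and in combination with standard and investigational anticancer drugs. Each was titrated in half-log steps from near clinical Cmax, or from 10 microM where Cmax was unknown.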

[1] = second compound 0.0316 µM, first compound 0.0316 µM
[2] = second compound 0.0316 µM, first compound 0.1 µM
[3] = second compound 0.0316 µM, first compound 0.316 µM
[4] = second compound 0.0316 µM, first compound 1 µM
[5] = second compound 0.0316 µM, first compound 3.16 µM
[6] = second compound 0.0316 µM, first compound 10 µM
[7] = second compound 0.1 µM, first compound 0.0316 µM
[8] = second compound 0.1 µM, first compound 0.1 µM
[9] = second compound 0.1 µM, first compound 0.316 µM
[10] = second compound 0.1 µM, first compound 1 µM
[11] = second compound 0.1 µM, first compound 3.16 µM
[12] = second compound 0.1 µM, first compound 10 µM
[13] = second compound 0.316 µM, first compound 0.0316 µM
[14] = second compound 0.316 µM, first compound 0.1 µM
[15] = second compound 0.316 µM, first compound 0.316 µM
[16] = second compound 0.316 µM, first compound 1 µM
[17] = second compound 0.316 µM, first compound 3.16 µM
[18] = second compound 0.316 µM, first compound 10 µM
[19] = second compound 1 µM, first compound 0.0316 µM
[20] = second compound 1 µM, first compound 0.1 µM
[21] = second compound 1 µM, first compound 0.316 µM
[22] = second compound 1 µM, first compound 1 µM
[23] = second compound 1 µM, first compound 3.16 µM
[24] = second compound 1 µM, first compound 10 µM
[25] = second compound 3.16 µM, first compound 0.0316 µM
[26] = second compound 3.16 µM, first compound 0.1 µM
[27] = second compound 3.16 µM, first compound 0.316 µM
[28] = second compound 3.16 µM, first compound 1 µM
[29] = second compound 3.16 µM, first compound 3.16 µM
[30] = second compound 3.16 µM, first compound 10 µM
[31] = second compound 10 µM, first compound 0.0316 µM
[32] = second compound 10 µM, first compound 0.1 µM
[33] = second compound 10 µM, first compound 0.316 µM
[34] = second compound 10 µM, first compound 1 µM
[35] = second compound 10 µM, first compound 3.16 µM
[36] = second compound 10 µM, first compound 10 µM
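Note: spheroids exposed to compounds for seven days before readout.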

SMILES: C#Cc1c(F)ccc2cc(O)cc(-c3ncc4c(N5CC6CCC(C5)N6)nc(OCC56CCCN5CC(F)C6)nc4c3F)c12 (stereo not given) + Cc1cccc(N(C)C(=O)C2C(O)CCN2c2nc(C)cc(C(F)(F)F)c2C#N)c1
- IC50 (second compound 0.0316 µM): > 10 µM
- IC50 (second compound 0.1 µM): > 10 µM
- IC50 (second compound 0.316 µM): > 10 µM
- IC50 (second compound 1 µM): > 10 µM
- IC50 (second compound 3.16 µM): > 10 µM
- IC50 (second compound 10 µM): > 10 µM
- viability, T/C [1]: 106%
- viability, T/C [2]: 105%
- viability, T/C [3]: 108%
- viability, T/C [4]: 101%
- viability, T/C [5]: 105%
- viability, T/C [6]: 103%
- viability, T/C [7]: 103%
- viability, T/C [8]: 103%
- viability, T/C [9]: 102%
- viability, T/C [10]: 96.7%
- viability, T/C [11]: 103%
- viability, T/C [12]: 103%
- viability, T/C [13]: 106%
- viability, T/C [14]: 103%
- viability, T/C [15]: 99.4%
- viability, T/C [16]: 97.4%
- viability, T/C [17]: 114%
- viability, T/C [18]: 110%
- viability, T/C [19]: 109%
- viability, T/C [20]: 99.7%
- viability, T/C [21]: 106%
- viability, T/C [22]: 96.8%
- viability, T/C [23]: 111%
- viability, T/C [24]: 113%
- viability, T/C [25]: 101%
- viability, T/C [26]: 92.3%
- viability, T/C [27]: 97.5%
- viability, T/C [28]: 98.3%
- viability, T/C [29]: 107%
- viability, T/C [30]: 112%
- viability, T/C [31]: 102%
- viability, T/C [32]: 107%
- viability, T/C [33]: 112%
- viability, T/C [34]: 94.3%
- viability, T/C [35]: 102%
- viability, T/C [36]: 100%

SMILES: CC1COCCN1c1cc(C2(O)CC3CCC(C2)O3)c2cnn(-c3ccn[nH]3)c2n1 (stereo not given) + Cc1cccc(N(C)C(=O)C2C(O)CCN2c2nc(C)cc(C(F)(F)F)c2C#N)c1
- IC50 (second compound 0.0316 µM): 0.0938 µM
- IC50 (second compound 0.1 µM): 0.0901 µM
- IC50 (second compound 0.316 µM): 0.0882 µM
- IC50 (second compound 1 µM): 0.0898 µM
- IC50 (second compound 3.16 µM): 0.0911 µM
- IC50 (second compound 10 µM): 0.0834 µM
- viability, T/C [1]: 109%
- viability, T/C [2]: 46.7%
- viability, T/C [3]: 14.1%
- viability, T/C [4]: 9.62%
- viability, T/C [5]: 6.47%
- viability, T/C [6]: 3.79%
- viability, T/C [7]: 91.8%
- viability, T/C [8]: 45.9%
- viability, T/C [9]: 12.6%
- viability, T/C [10]: 9%
- viability, T/C [11]: 6.6%
- viability, T/C [12]: 4.11%
- viability, T/C [13]: 104%
- viability, T/C [14]: 43.5%
- viability, T/C [15]: 16.4%
- viability, T/C [16]: 8.37%
- viability, T/C [17]: 6.11%
- viability, T/C [18]: 3.68%
- viability, T/C [19]: 95%
- viability, T/C [20]: 45.5%
- viability, T/C [21]: 13.2%
- viability, T/C [22]: 9.4%
- viability, T/C [23]: 5.77%
- viability, T/C [24]: 3.51%
- viability, T/C [25]: 97.5%
- viability, T/C [26]: 45.8%
- viability, T/C [27]: 10.4%
- viability, T/C [28]: 9.18%
- viability, T/C [29]: 6.79%
- viability, T/C [30]: 4.13%
- viability, T/C [31]: 83.4%
- viability, T/C [32]: 44%
- viability, T/C [33]: 15.1%
- viability, T/C [34]: 9.77%
- viability, T/C [35]: 7.49%
- viability, T/C [36]: 2.55%

SMILES: CCc1cc2c(N3CCc4c(cc(Cn5ccnc5)cc4-c4cn(C)nc4C(F)(F)F)C3=O)cc(C)nc2c(OC)n1 + Cc1cccc(N(C)C(=O)C2C(O)CCN2c2nc(C)cc(C(F)(F)F)c2C#N)c1
- IC50 (second compound 0.0316 µM): 2.91 µM
- IC50 (second compound 0.1 µM): 6.15 µM
- IC50 (second compound 0.316 µM): 6.91 µM
- IC50 (second compound 1 µM): 7.37 µM
- IC50 (second compound 3.16 µM): 9.61 µM
- IC50 (second compound 10 µM): 6.32 µM
- viability, T/C [1]: 102%
- viability, T/C [2]: 134%
- viability, T/C [3]: 134%
- viability, T/C [4]: 72.5%
- viability, T/C [5]: 61.1%
- viability, T/C [6]: 35.2%
- viability, T/C [7]: 101%
- viability, T/C [8]: 144%
- viability, T/C [9]: 119%
- viability, T/C [10]: 91.1%
- viability, T/C [11]: 66.8%
- viability, T/C [12]: 39.1%
- viability, T/C [13]: 126%
- viability, T/C [14]: 147%
- viability, T/C [15]: 103%
- viability, T/C [16]: 111%
- viability, T/C [17]: 70.7%
- viability, T/C [18]: 39.4%
- viability, T/C [19]: 119%
- viability, T/C [20]: 125%
- viability, T/C [21]: 113%
- viability, T/C [22]: 81%
- viability, T/C [23]: 71.7%
- viability, T/C [24]: 42.4%
- viability, T/C [25]: 135%
- viability, T/C [26]: 128%
- viability, T/C [27]: 143%
- viability, T/C [28]: 95.3%
- viability, T/C [29]: 71.4%
- viability, T/C [30]: 46.1%
- viability, T/C [31]: 110%
- viability, T/C [32]: 132%
- viability, T/C [33]: 145%
- viability, T/C [34]: 98.2%
- viability, T/C [35]: 73.1%
- viability, T/C [36]: 36.1%

SMILES: CCc1cc2c(N3CCc4c(cc(Cn5ccnc5)cc4-c4cn(C)nc4C(F)(F)F)C3=O)ccnc2c(OC)n1 + Cc1cccc(N(C)C(=O)C2C(O)CCN2c2nc(C)cc(C(F)(F)F)c2C#N)c1
- IC50 (second compound 0.0316 µM): 7.34 µM
- IC50 (second compound 0.1 µM): > 10 µM
- IC50 (second compound 0.316 µM): > 10 µM
- IC50 (second compound 1 µM): > 10 µM
- IC50 (second compound 3.16 µM): 9.2 µM
- IC50 (second compound 10 µM): 9.15 µM
- viability, T/C [1]: 111%
- viability, T/C [2]: 154%
- viability, T/C [3]: 110%
- viability, T/C [4]: 96.3%
- viability, T/C [5]: 70.9%
- viability, T/C [6]: 42.2%
- viability, T/C [7]: 99.9%
- viability, T/C [8]: 147%
- viability, T/C [9]: 113%
- viability, T/C [10]: 85.7%
- viability, T/C [11]: 79.6%
- viability, T/C [12]: 47.5%
- viability, T/C [13]: 102%
- viability, T/C [14]: 151%
- viability, T/C [15]: 107%
- viability, T/C [16]: 107%
- viability, T/C [17]: 80.4%
- viability, T/C [18]: 54.2%
- viability, T/C [19]: 125%
- viability, T/C [20]: 162%
- viability, T/C [21]: 110%
- viability, T/C [22]: 90%
- viability, T/C [23]: 79.7%
- viability, T/C [24]: 51.5%
- viability, T/C [25]: 138%
- viability, T/C [26]: 166%
- viability, T/C [27]: 103%
- viability, T/C [28]: 115%
- viability, T/C [29]: 74.7%
- viability, T/C [30]: 47.8%
- viability, T/C [31]: 116%
- viability, T/C [32]: 141%
- viability, T/C [33]: 158%
- viability, T/C [34]: 112%
- viability, T/C [35]: 88.3%
- viability, T/C [36]: 46.3%

SMILES: COc1cc2cc(C(=O)CCC(=O)O)sc2cc1OC + Cc1cccc(N(C)C(=O)C2C(O)CCN2c2nc(C)cc(C(F)(F)F)c2C#N)c1
- IC50 (second compound 0.0316 µM): > 10 µM
- IC50 (second compound 0.1 µM): > 10 µM
- IC50 (second compound 0.316 µM): > 10 µM
- IC50 (second compound 1 µM): > 10 µM
- IC50 (second compound 3.16 µM): > 10 µM
- IC50 (second compound 10 µM): > 10 µM
- viability, T/C [1]: 111%
- viability, T/C [2]: 118%
- viability, T/C [3]: 106%
- viability, T/C [4]: 94%
- viability, T/C [5]: 108%
- viability, T/C [6]: 113%
- viability, T/C [7]: 108%
- viability, T/C [8]: 118%
- viability, T/C [9]: 100%
- viability, T/C [10]: 108%
- viability, T/C [11]: 122%
- viability, T/C [12]: 125%
- viability, T/C [13]: 96.6%
- viability, T/C [14]: 149%
- viability, T/C [15]: 103%
- viability, T/C [16]: 95.5%
- viability, T/C [17]: 116%
- viability, T/C [18]: 102%
- viability, T/C [19]: 85.4%
- viability, T/C [20]: 131%
- viability, T/C [21]: 102%
- viability, T/C [22]: 129%
- viability, T/C [23]: 112%
- viability, T/C [24]: 89.2%
- viability, T/C [25]: 118%
- viability, T/C [26]: 122%
- viability, T/C [27]: 102%
- viability, T/C [28]: 126%
- viability, T/C [29]: 129%
- viability, T/C [30]: 120%
- viability, T/C [31]: 108%
- viability, T/C [32]: 127%
- viability, T/C [33]: 121%
- viability, T/C [34]: 114%
- viability, T/C [35]: 114%
- viability, T/C [36]: 114%
